# Tests used:
# Assay in all cases: Test D controlled growth environment herbicide test, pre- and postemergence
# Assay type in all cases: in vivo
# [1] = test system: barley, spring (spring barley, Hordeum vulgare)
# How it was run: (§1)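 Pre-emergence: seeds sown in silt loam soil were sprayed with compound in a non-phytotoxic solvent mix containing surfactant. Post-emergence: plants at 2 to 18 cm (1- to 4-leaf stage) in peat moss/vermiculite medium got the same formulation. Visual 0–100 rating versus controls after 14 to 21 d.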
# [2] = test system: bromegrass, downy (downy bromegrass, Bromus tectorum)
# How it was run: as §1
# [3] = test system: chamomile (scentless chamomile, Matricaria inodora)
# How it was run: as §1
# [4] = test system: deadnettle (henbit deadnettle, Lamium amplexicaule)
# How it was run: as §1
# [5] = test system: field violet (Viola arvensis)
# How it was run: as §1
# [6] = test system: lambsquarters (Chenopodium album)
# How it was run: as §1
# [7] = test system: mustard, wild (wild mustard, Sinapis arvensis)
# How it was run: as §1
# [8] = test system: oat, wild (wild oat, Avena fatua)
# How it was run: as §1
# [9] = test system: oilseed rape (Brassica napus)
# How it was run: as §1
# [10] = test system: radish, wild (wild radish, Raphanus raphanistrum)
# How it was run: as §1
# [11] = test system: speedwell (bird's-eye speedwell, Veronica persica)
# How it was run: as §1
# [12] = test system: wheat, spring (spring wheat, Triticum aestivum)
# How it was run: as §1
# [13] = test system: windgrass (Apera spica-venti)
# How it was run: as §1
# [14] = Postemergence, 31 g ai/ha, scale 0 to 100 (0 no effect, 100 complete control)
# [15] = Postemergence, 125 g ai/ha, visual rating on scale 0 (no effect) to 100 (complete control), 14 to 21 d
# [16] = Postemergence, 250 g ai/ha, scale 0 to 100 (0 no effect, 100 complete control)
# [17] = Preemergence, 62 g ai/ha, scale 0 to 100 (0 no effect, 100 complete control)
# [18] = Preemergence, 125 g ai/ha, scale 0 to 100 (0 no effect, 100 complete control)
# [19] = Preemergence, 250 g ai/ha, scale 0 to 100 (0 no effect, 100 complete control)
# [20] = postemergence, 62 g ai/ha, scale 0 to 100, 0 no effect, 100 complete control
smiles,measurement,setting,value
Cc1cc(C)c2sc(C)c(-c3c(OC(=O)OCCCl)c(C)nn(C)c3=O)c2c1 [Compound 85],"Barley, Spring plant response rating",[1]; [14],0
same,"Plant response rating, Barley, Spring",[1]; [15],15
same,"Plant response rating, Barley, Spring",[1]; [16],20
same,"Plant response rating (scale of 0 to 100), Barley, Spring","[1]; Preemergence, 31 g ai/ha",0
same,"Plant response rating, Barley, Spring",[1]; [17],0
same,"Plant response rating, Barley, Spring",[1]; [18],0
same,"Plant response rating, Barley, Spring",[1]; [19],5
same,"Plant response rating, Barley, Spring",[1]; [20],0
same,"Bromegrass, Downy plant response rating",[2]; [14],30
same,"Plant response rating, Bromegrass, Downy",[2]; [15],35
same,"Plant response rating, Bromegrass, Downy",[2]; [16],60
same,"Plant response rating (scale of 0 to 100), Bromegrass, Downy","[2]; Preemergence, 31 g ai/ha",15
same,"Plant response rating, Bromegrass, Downy",[2]; [17],35
same,"Plant response rating, Bromegrass, Downy",[2]; [18],55
same,"Plant response rating, Bromegrass, Downy",[2]; [19],80
same,"Plant response rating, Bromegrass, Downy",[2]; [20],30
same,Chamomile plant response rating,[3]; [14],75
same,"Plant response rating, Chamomile",[3]; [15],90
same,"Plant response rating, Chamomile",[3]; [16],85
same,"Plant response rating, Chamomile",[3]; [20],75
same,Deadnettle plant response rating,[4]; [14],10
same,"Plant response rating, Deadnettle",[4]; [15],40
same,"Plant response rating, Deadnettle",[4]; [16],45
same,"Plant response rating (scale of 0 to 100), Deadnettle","[4]; Preemergence, 31 g ai/ha",0
same,"Plant response rating (scale of 0 to 100), Deadnettle","[4]; Preemergence, 62 g ai/ha",0
same,"Plant response rating, Deadnettle",[4]; [18],10
same,"Plant response rating, Deadnettle",[4]; [19],35
same,"Plant response rating, Deadnettle",[4]; [20],15
same,Field Violet plant response rating,[5]; [14],65
same,"Plant response rating, Field Violet",[5]; [15],75
same,"Plant response rating, Field Violet",[5]; [16],90
same,"Plant response rating (scale of 0 to 100), Field Violet","[5]; Preemergence, 31 g ai/ha",65
same,"Plant response rating (scale of 0 to 100), Field Violet","[5]; Preemergence, 62 g ai/ha",70
same,"Plant response rating, Field Violet",[5]; [18],95
same,"Plant response rating, Field Violet",[5]; [19],100
same,"Plant response rating, Field Violet",[5]; [20],65
same,Lambsquarters plant response rating,[6]; [14],80
same,"Plant response rating, Lambsquarters",[6]; [15],95
same,"Plant response rating, Lambsquarters",[6]; [16],95
same,"Plant response rating (scale of 0 to 100), Lambsquarters","[6]; Preemergence, 31 g ai/ha",25
same,"Plant response rating (scale of 0 to 100), Lambsquarters","[6]; Preemergence, 62 g ai/ha",100
same,"Plant response rating, Lambsquarters",[6]; [18],100
same,"Plant response rating, Lambsquarters",[6]; [19],100
same,"Plant response rating, Lambsquarters",[6]; [20],85
same,"Mustard, Wild plant response rating",[7]; [14],10
same,"Plant response rating, Mustard, Wild",[7]; [15],30
same,"Plant response rating, Mustard, Wild",[7]; [16],80
same,"Plant response rating (scale of 0 to 100), Mustard, Wild","[7]; Preemergence, 31 g ai/ha",25
same,"Plant response rating (scale of 0 to 100), Mustard, Wild","[7]; Preemergence, 62 g ai/ha",25
same,"Plant response rating, Mustard, Wild",[7]; [18],35
same,"Plant response rating, Mustard, Wild",[7]; [19],40
same,"Plant response rating, Mustard, Wild",[7]; [20],25
same,"Oat, Wild plant response rating",[8]; [14],75
same,"Plant response rating, Oat, Wild",[8]; [15],95
same,"Plant response rating, Oat, Wild",[8]; [16],100
same,"Plant response rating (scale of 0 to 100), Oat, Wild","[8]; Preemergence, 31 g ai/ha",75
same,"Plant response rating (scale of 0 to 100), Oat, Wild","[8]; Preemergence, 62 g ai/ha",75
same,"Plant response rating, Oat, Wild",[8]; [18],85
same,"Plant response rating, Oat, Wild",[8]; [19],90
same,"Plant response rating, Oat, Wild",[8]; [20],85
same,Oilseed Rape plant response rating,[9]; [14],65
same,"Plant response rating, Oilseed Rape",[9]; [15],70
same,"Plant response rating, Oilseed Rape",[9]; [16],80
same,"Plant response rating (scale of 0 to 100), Oilseed Rape","[9]; Preemergence, 31 g ai/ha",0
same,"Plant response rating (scale of 0 to 100), Oilseed Rape","[9]; Preemergence, 62 g ai/ha",0
same,"Plant response rating, Oilseed Rape",[9]; [18],20
same,"Plant response rating, Oilseed Rape",[9]; [19],30
same,"Plant response rating, Oilseed Rape",[9]; [20],70
same,"Radish, Wild plant response rating",[10]; [14],60
same,"Plant response rating, Radish, Wild",[10]; [15],75
same,"Plant response rating, Radish, Wild",[10]; [16],80
same,"Plant response rating (scale of 0 to 100), Radish, Wild","[10]; Preemergence, 31 g ai/ha",0
same,"Plant response rating (scale of 0 to 100), Radish, Wild","[10]; Preemergence, 62 g ai/ha",25
same,"Plant response rating, Radish, Wild",[10]; [18],100
same,"Plant response rating, Radish, Wild",[10]; [19],100
same,"Plant response rating, Radish, Wild",[10]; [20],65
same,Speedwell plant response rating,[11]; [14],35
same,"Plant response rating, Speedwell",[11]; [15],80
same,"Plant response rating, Speedwell",[11]; [16],100
same,"Plant response rating (scale of 0 to 100), Speedwell","[11]; Preemergence, 31 g ai/ha",50
same,"Plant response rating (scale of 0 to 100), Speedwell","[11]; Preemergence, 62 g ai/ha",90
same,"Plant response rating, Speedwell",[11]; [18],100
same,"Plant response rating, Speedwell",[11]; [19],100
same,"Plant response rating, Speedwell",[11]; [20],70
same,"Wheat, Spring plant response rating",[12]; [14],0
same,"Plant response rating, Wheat, Spring",[12]; [15],15
same,"Plant response rating, Wheat, Spring",[12]; [16],20
same,"Plant response rating (scale of 0 to 100), Wheat, Spring","[12]; Preemergence, 31 g ai/ha",0
same,"Plant response rating (scale of 0 to 100), Wheat, Spring","[12]; Preemergence, 62 g ai/ha",0
same,"Plant response rating, Wheat, Spring",[12]; [18],15
same,"Plant response rating, Wheat, Spring",[12]; [19],40
same,"Plant response rating, Wheat, Spring",[12]; [20],0
same,Windgrass plant response rating,[13]; [14],60
same,"Plant response rating, Windgrass",[13]; [15],80
same,"Plant response rating, Windgrass",[13]; [16],85
same,"Plant response rating (scale of 0 to 100), Windgrass","[13]; Preemergence, 31 g ai/ha",55
same,"Plant response rating (scale of 0 to 100), Windgrass","[13]; Preemergence, 62 g ai/ha",70
same,"Plant response rating, Windgrass",[13]; [18],95
same,"Plant response rating, Windgrass",[13]; [19],100
same,"Plant response rating, Windgrass",[13]; [20],70

# — patent publication US10597388B2, “Pyridazinone herbicides” (FMC CORPORATION, priority 2014, dated 2020)
